Assay results as given in patent US20260217711A1, “TRIAZOLOPYRIDINYL ETHER LINKED COMPOUNDS AS KINASE INHIBITORS” (Bristol-Myers Squibb Company, priority 2023, published 2026).
Where two headings read alike, the source gives them in different places.

System: MLKL phosphorylation (pMLKL) in HT29-L23 cells
Test: MLKL Phosphorylation High-Content Assay
Assay type: cell-based
Details: necroptosis induced with human TNFα, SMAC mimetic and Z-VAD, 6 h, read-out: LE pMLKL HC IC50
Description: Following 6 h incubation at 37° C. […] MLKL phosphorylation was detected using anti-MLKL (phospho […]) antibody (Abcam #ab187091) (1:1000 dilution in Blocking Buffer [PBS supplemented with 0.1% BSA]) with ON incubation at 4° C. […] Following another three cycles of washes in PBS, the microplates were sealed, and cellular images were acquired in the Cellomics ArrayScan VTI high-content imager equipped with an X1 camera. […] The image sets were analyzed using the Compartmental Analysis Bioapplication software (Cellomics). The level of MLKL phosphorylation was quantified as […].

Row | SMILES | IC50 | IC50 (Homo sapiens)
1 | CC(O)(c1ccc(F)cc1)C(F)(F)CCOc1c(F)ccc(-c2ccc3nc(N)nn3c2)c1F (single isomer, unassigned) [Example 76, 5-(3-(2-amino-[1,2,4]triazolo[1,5-a]pyridin-6-yl)-2,6-difluorophenoxy)-3,3-difluoro-2-(4-fluorophenyl)pentan-2-ol] | 2 nM | 
2 | CC(O)(c1ccc(F)cc1)C(F)(F)CCOc1ccc(F)c(-c2ccn3nc(N)nc3c2)n1 (single isomer, unassigned) [Example 77, 5-((6-(2-amino-[1,2,4]triazolo[1,5-a]pyridin-7-yl)-5-fluoropyridin-2-yl)oxy)-3,3-difluoro-2-(4-fluorophenyl)pentan-2-ol] | 430 nM | 
3 | CC(O)(c1ccc(F)cc1)C(F)(F)CCOc1ccc(F)c(-c2ccn3nc(N)nc3c2)n1 (single isomer, unassigned) [Example 78, 5-((6-(2-amino-[1,2,4]triazolo[1,5-a]pyridin-7-yl)-5-fluoropyridin-2-yl)oxy)-3,3-difluoro-2-(4-fluorophenyl)pentan-2-ol] | 13 nM | 
4 | CC(O)(c1ccc(F)cc1)C(F)(F)CCOc1ccc(Cl)c(-c2ccn3nc(N)nc3c2)n1 (single isomer, unassigned) [Example 79, 5-((6-(2-amino-[1,2,4]triazolo[1,5-a]pyridin-7-yl)-5-chloropyridin-2-yl)oxy)-3,3-difluoro-2-(4-fluorophenyl)pentan-2-ol] | 160 nM | 
5 | Nc1nc2cc(-c3ccc(Cl)c(OCCC(F)C(O)c4ccc(F)cc4)c3F)ccn2n1 (single isomer, unassigned) [Example 82, 4-(3-(2-amino-[1,2,4]triazolo[1,5-a]pyridin-7-yl)-6-chloro-2-fluorophenoxy)-2-fluoro-1-(4-fluorophenyl)butan-1-ol] |  | 26 nM
6 | Nc1nc2cc(-c3ccc(Cl)c(OCCC(F)C(O)c4ccc(F)cc4)c3F)ccn2n1 (single isomer, unassigned) [Example 83, 4-(3-(2-amino-[1,2,4]triazolo[1,5-a]pyridin-7-yl)-6-chloro-2-fluorophenoxy)-2-fluoro-1-(4-fluorophenyl)butan-1-ol] | 26 nM | 
7 | Nc1nc2cc(-c3cccc(OCCC(F)C(O)c4ccc(F)cc4)c3F)ccn2n1 (single isomer, unassigned) [Example 84, 4-(3-(2-amino-[1,2,4]triazolo[1,5-a]pyridin-7-yl)-2-fluorophenoxy)-2-fluoro-1-(4-fluorophenyl)butan-1-ol] | 3.2 nM | 
8 | Nc1nc2cc(-c3cccc(OCCC(F)C(O)c4ccc(F)cc4)c3F)ccn2n1 (single isomer, unassigned) [Example 85, 4-(3-(2-amino-[1,2,4]triazolo[1,5-a]pyridin-7-yl)-2-fluorophenoxy)-2-fluoro-1-(4-fluorophenyl)butan-1-ol] | 0.9 nM | 
9 | Nc1nc2cc(-c3cccc(OCCC(F)C(O)c4ccc(F)cc4)c3F)ccn2n1 (single isomer, unassigned) [Example 86, 4-(3-(2-amino-[1,2,4]triazolo[1,5-a]pyridin-7-yl)-2-fluorophenoxy)-2-fluoro-1-(4-fluorophenyl)butan-1-ol] | 17 nM | 
10 | Nc1nc2cc(-c3cccc(OCCC(F)C(O)c4ccc(F)cc4)c3F)ccn2n1 (single isomer, unassigned) [Example 87, 4-(3-(2-amino-[1,2,4]triazolo[1,5-a]pyridin-7-yl)-2-fluorophenoxy)-2-fluoro-1-(4-fluorophenyl)butan-1-ol] | 0.4 nM | 
11 | CC(O)(c1ccc(F)cc1)C(F)CCOc1cccc(-c2ccn3nc(N)nc3c2)c1F (single isomer, unassigned) [Example 88, 5-(3-(2-amino-[1,2,4]triazolo[1,5-a]pyridin-7-yl)-2-fluorophenoxy)-3-fluoro-2-(4-fluorophenyl)pentan-2-ol] | 13 nM | 
12 | CC(O)(c1ccc(F)cc1)C(F)CCOc1cccc(-c2ccn3nc(N)nc3c2)c1F (single isomer, unassigned) [Example 89, 5-(3-(2-amino-[1,2,4]triazolo[1,5-a]pyridin-7-yl)-2-fluorophenoxy)-3-fluoro-2-(4-fluorophenyl)pentan-2-ol] | 15 nM | 
